Test results: patent US12310975B2, “Modulators of BCL6 proteolysis and associated methods of use” (Arvinas Operations, Inc., priority 2019, dated 2025)
Where two headings read alike, the source gives them in different places.

Biological target: BCL6 (Homo sapiens (Human), UniProt P41182)
Experiment: Immunofluorescence high content imaging of BCL6 degradation in T47D cells
Format: cell-based
Settings: for DC50: class symbols A-D, read-out: EC50 (nM)*
In short: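 T47D cells were treated 3 days at 37 °C with an 11-point 3-fold dilution series (top 0.1 or 1 μM), then fixed, permeabilized and immunostained for BCL6 with Alexa-488 secondary, CellMask and Hoechst. BCL6 signal was imaged at 10×, 4 fields/well, with top-hat smoothing.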

| Structure (SMILES) | Dmax (T47D cells) [%] | IC50 (T47D cells) [nM] | further results |
| --- | --- | --- | --- |
| Cc1nnc(-c2cc3cc(Nc4nc(N5CCN(C(C)(C)C6CCN(c7ccc8c(c7)C(=O)N(C7CCC(=O)NC7=O)C8=O)CC6)CC5)ncc4Cl)ccc3n(C)c2=O)o1 (centres unmarked) [compound 285, 5-(4-{2-[4-(5-chloro-4-{[1-methyl-3-(5-methyl-1,3,4-oxadiazol-2-yl)-2-oxo-1,2-dihydroquinolin-6-yl]amino}pyrimidin-2-yl)piperazin-1-yl]propan-2-yl}piperidin-1-yl)-2-(2,6-dioxopiperidin-3-yl)-2,3-dihydro-1H-isoindole-1,3-dione] |  |  | IC50: 10 to 50 nM; Dmax (T47D): < 50% |
| CNC(=O)COc1cc2cc(Nc3nc(N4CC5(CCN(CC6CCN(c7ccc8c(c7)C(=O)N(C7CCC(=O)NC7=O)C8=O)CC6)CC5)C4)ncc3Cl)ccc2n(C(C)C)c1=O (centres unmarked) [compound 422, 2-{[6-({5-chloro-2-[7-({1-[2-(2,6-dioxopiperidin-3-yl)-1,3-dioxo-2,3-dihydro-1H-isoindol-5-yl]piperidin-4-yl}methyl)-2,7-diazaspiro[3.5]nonan-2-yl]pyrimidin-4-yl}amino)-2-oxo-1-(propan-2-yl)-1,2-dihydroquinolin-3-yl]oxy}-N-methylacetamide] | 50 to 70 | < 10 |  |
| CNC(=O)COc1cc2cc(Nc3nc(N4CCC(OC5CC6(C5)CN(c5cccc7c5CN(C5CCC(=O)NC5=O)C7=O)C6)CC4)ncc3Cl)ccc2n(C(C)C)c1=O (centres unmarked) [compound 424, 2-{[6-({5-chloro-2-[4-({2-[2-(2,6-dioxopiperidin-3-yl)-1-oxo-2,3-dihydro-1H-isoindol-4-yl]-2-azaspiro[3.3]heptan-6-yl}oxy)piperidin-1-yl]pyrimidin-4-yl}amino)-2-oxo-1-(propan-2-yl)-1,2-dihydroquinolin-3-yl]oxy}-N-methylacetamide] | ≥ 70 | 10 to 50 |  |
| CNC(=O)COc1cc2cc(Nc3nc(N4CCC(CN5CCC(c6cccc7c6C(=O)N(C6CCC(=O)NC6=O)C7=O)CC5)CC4)ncc3Cl)ccc2n(C(C)C)c1=O (centres unmarked) [compound 386, 2-{[6-({5-chloro-2-[4-({4-[2-(2,6-dioxopiperidin-3-yl)-1,3-dioxo-2,3-dihydro-1H-isoindol-4-yl]piperidin-1-yl}methyl)piperidin-1-yl]pyrimidin-4-yl}amino)-2-oxo-1-(propan-2-yl)-1,2-dihydroquinolin-3-yl]oxy}-N-methylacetamide] | 50 to 70 | < 10 |  |
| CNC(=O)COc1cc2cc(Nc3nc(N4CCC(OCCOCCOCCOc5ccc6c(c5)CN(C5CCC(=O)NC5=O)C6=O)CC4)ncc3Cl)ccc2n(C)c1=O (centres unmarked) [compound 65, 2-((6-((5-chloro-2-(4-(2-(2-(2-((2-(2,6-dioxopiperidin-3-yl)-1-oxoisoindolin-5-yl)oxy)ethoxy)ethoxy)ethoxy)piperidin-1-yl)pyrimidin-4-yl)amino)-1-methyl-2-oxo-1,2-dihydroquinolin-3-yl)oxy)-N-methylacetamide] |  |  | DC50: > 100 nM |
| Cn1c(=O)c(-c2nnc[nH]2)cc2cc(Nc3nc(N4CCC(CN5CCN(c6ccc7c(c6)C(=O)N(C6CCC(=O)NC6=O)C7=O)CC5)CC4)ncc3Cl)ccc21 (centres unmarked) [compound 282, 5-(4-{[1-(5-chloro-4-{[1-methyl-2-oxo-3-(4H-1,2,4-triazol-3-yl)-1,2-dihydroquinolin-6-yl]amino}pyrimidin-2-yl)piperidin-4-yl]methyl}piperazin-1-yl)-2-(2,6-dioxopiperidin-3-yl)-2,3-dihydro-1H-isoindole-1,3-dione] |  |  | IC50: ≥ 100 nM |
| CNC(=O)COc1cc2cc(Nc3nc(N4CCC(OCCOc5ccc6c(c5)C(=O)N(C5CCC(=O)NC5=O)C6=O)CC4)ncc3Cl)ccc2n(C)c1=O (centres unmarked) [compound 72, 2-((6-((5-chloro-2-(4-(2-((2-(2,6-dioxopiperidin-3-yl)-1,3-dioxoisoindolin-5-yl)oxy)ethoxy)piperidin-1-yl)pyrimidin-4-yl)amino)-1-methyl-2-oxo-1,2-dihydroquinolin-3-yl)oxy)-N-methylacetamide] |  |  | DC50: 50 to 100 nM |
| CNC(=O)COc1cc2cc(Nc3nc(N4CCC(OCCCOc5cc(-c6scnc6C)ccc5CNC(=O)[C@@H]5C[C@@H](O)CN5C(=O)C(c5cc(C)no5)C(C)C)CC4)ncc3Cl)ccc2n(C)c1=O (stereo partly drawn) [compound 141, (2S,4R)-N-(2-(3-((1-(5-chloro-4-((1-methyl-3-(2-(methylamino)-2-oxoethoxy)-2-oxo-1,2-dihydroquinolin-6-yl)amino)pyrimidin-2-yl)piperidin-4-yl)oxy)propoxy)-4-(4-methylthiazol-5-yl)benzyl)-4-hydroxy-1-(3-methyl-2-(3-methylisoxazol-5-yl)butanoyl)pyrrolidine-2-carboxamide] |  |  | DC50: > 100 nM |
| CNC(=O)COc1cc2cc(Nc3nc(N4CCN(CC5CCCN5c5cccc6c5C(=O)N(C5CCC(=O)NC5=O)C6=O)CC4)ncc3Cl)ccc2n(C(C)C)c1=O (centres unmarked) [compound 398, 2-{[6-({5-chloro-2-[4-({1-[2-(2,6-dioxopiperidin-3-yl)-1,3-dioxo-2,3-dihydro-1H-isoindol-4-yl]pyrrolidin-2-yl}methyl)piperazin-1-yl]pyrimidin-4-yl}amino)-2-oxo-1-(propan-2-yl)-1,2-dihydroquinolin-3-yl]oxy}-N-methylacetamide] | < 50 | < 10 |  |
| CNC(=O)COc1cc2cc(Nc3nc(N4CCC5(CC4)CN(CC4CCN(c6ccc7c(c6)C(=O)N(C6CCC(=O)NC6=O)C7=O)CC4)C5)ncc3Cl)ccc2n(C(C)C)c1=O (centres unmarked) [compound 384] | ≥ 70 | < 10 |  |
| CNC(=O)COc1cc2cc(Nc3nc(N4C[C@@H](C)N(CC5CCN(c6cccc(C(=O)NC7CCC(=O)NC7=O)c6F)CC5)[C@@H](C)C4)ncc3Cl)ccc2n(C)c1=O (stereo partly drawn) [compound 355, 3-(4-{[(2R,6S)-4-[5-chloro-4-({1-methyl-3-[(methylcarbamoyl)methoxy]-2-oxo-1,2-dihydroquinolin-6-yl}amino)pyrimidin-2-yl]-2,6-dimethylpiperazin-1-yl]methyl}piperidin-1-yl)-N-(2,6-dioxopiperidin-3-yl)-2-fluorobenzamide] | 50 to 70 | 50 to 100 |  |
| CCn1c(=O)c(OCC(=O)NC)cc2cc(Nc3nc(N4CCN(CC5CCN(c6cccc7c6C(=O)N(C6CCC(=O)NC6=O)C7=O)CC5)CC4)ncc3Cl)ccc21 (centres unmarked) [compound 310, 2-{[6-({5-chloro-2-[4-({1-[2-(2,6-dioxopiperidin-3-yl)-1,3-dioxo-2,3-dihydro-1H-isoindol-4-yl]piperidin-4-yl}methyl)piperazin-1-yl]pyrimidin-4-yl}amino)-1-ethyl-2-oxo-1,2-dihydroquinolin-3-yl]oxy}-N-methylacetamide] |  |  | IC50: < 10 nM; Dmax (T47D): 50 to 70% |
| CNC(=O)COc1cc2cc(Nc3nc(N4CCC(OC5CCCN(c6ccc7c(c6)C(=O)N(C6CCC(=O)NC6=O)C7=O)CC5)CC4)ncc3Cl)ccc2n(C)c1=O (centres unmarked) [compound 242, 2-((6-((5-chloro-2-(4-((1-(2-(2,6-dioxopiperidin-3-yl)-1,3-dioxoisoindolin-5-yl)azepan-4-yl)oxy)piperidin-1-yl)pyrimidin-4-yl)amino)-1-methyl-2-oxo-1,2-dihydroquinolin-3-yl)oxy)-N-methylacetamide] |  |  | IC50: ≥ 100 nM |
| CNC(=O)COc1cc2cc(Nc3nc(N4CCC(CN5CCC6(CC5)CN(c5ccc7c(c5)CN(C5CCC(=O)NC5=O)C7=O)C6)CC4)ncc3Cl)ccc2n(C(C)C)c1=O (centres unmarked) [compound 417, 2-{[6-({5-chloro-2-[4-({2-[2-(2,6-dioxopiperidin-3-yl)-1-oxo-2,3-dihydro-1H-isoindol-5-yl]-2,7-diazaspiro[3.5]nonan-7-yl}methyl)piperidin-1-yl]pyrimidin-4-yl}amino)-2-oxo-1-(propan-2-yl)-1,2-dihydroquinolin-3-yl]oxy}-N-methylacetamide] | ≥ 70 | < 10 |  |
| CNC(=O)COc1cc2cc(Nc3nc(N4CCC(OCCOCCOCCOCCOCC(=O)N[C@H](C(=O)N5C[C@H](O)C[C@H]5C(=O)NCc5ccc(-c6scnc6C)cc5)C(C)(C)C)CC4)ncc3Cl)ccc2n(C)c1=O [compound 78, (2S,4R)-1-((S)-2-(tert-butyl)-17-((1-(5-chloro-4-((1-methyl-3-(2-(methylamino)-2-oxoethoxy)-2-oxo-1,2-dihydroquinolin-6-yl)amino)pyrimidin-2-yl)piperidin-4-yl)oxy)-4-oxo-6,9,12,15-tetraoxa-3-azaheptadecanoyl)-4-hydroxy-N-(4-(4-methylthiazol-5-yl)benzyl)pyrrolidine-2-carboxamide] |  |  | DC50: 10 to 50 nM |
| CNC(=O)COc1cc2cc(Nc3nc(N4CCC(OCc5ccc(OCCOCCOCCOc6ccc7c(c6)CN(C6CCC(=O)NC6=O)C7=O)cc5)CC4)ncc3Cl)ccc2n(C)c1=O (centres unmarked) [compound 118, 2-((6-((5-chloro-2-(4-((4-(2-(2-(2-((2-(2,6-dioxopiperidin-3-yl)-1-oxoisoindolin-5-yl)oxy)ethoxy)ethoxy)ethoxy)benzyl)oxy)piperidin-1-yl)pyrimidin-4-yl)amino)-1-methyl-2-oxo-1,2-dihydroquinolin-3-yl)oxy)-N-methylacetamide] |  |  | DC50: 50 to 100 nM |

Further lines, with some results ahead:

| Dmax (T47D cells) [%] | IC50 (T47D cells) [nM] | Structure (SMILES) | further results |
| --- | --- | --- | --- |
| 50 to 70 | < 10 | CNC(=O)COc1cc2cc(Nc3nc(N4CCC(OC5CC6(CCN(c7ccc8c(c7)C(=O)N(C7CCC(=O)NC7=O)C8=O)CC6)C5)CC4)ncc3Cl)ccc2n(C(C)C)c1=O (centres unmarked) [compound 390, 2-{[6-({5-chloro-2-[4-({7-[2-(2,6-dioxopiperidin-3-yl)-1,3-dioxo-2,3-dihydro-1H-isoindol-5-yl]-7-azaspiro[3.5]nonan-2-yl}oxy)piperidin-1-yl]pyrimidin-4-yl}amino)-2-oxo-1-(propan-2-yl)-1,2-dihydroquinolin-3-yl]oxy}-N-methylacetamide] |  |
| 50 to 70 | < 10 | CC[C@H]1CN(c2ncc(Cl)c(Nc3ccc4c(c3)cc(OCC(=O)NC)c(=O)n4C(C)C)n2)C[C@@H](COc2ccc3c(c2)C(=O)N(C2CCC(=O)NC2=O)C3=O)O1 (stereo partly drawn) [compound 394, 2-{[6-({5-chloro-2-[(2S,6S)-2-({[2-(2,6-dioxopiperidin-3-yl)-1,3-dioxo-2,3-dihydro-1H-isoindol-5-yl]oxy}methyl)-6-ethylmorpholin-4-yl]pyrimidin-4-yl}amino)-2-oxo-1-(propan-2-yl)-1,2-dihydroquinolin-3-yl]oxy}-N-methylacetamide] |  |
